Data as given in ChEMBL document CHEMBL1144170, “Syntheses and structure-activity relationships of novel, potent, and selective trans-2-[3-oxospiro[isobenzofuran-1(3H),1'-cyclohexan]-4'-yl]benzimidazole NPY Y5 receptor antagonists” (Bioorg Med Chem Lett, 2008).
Converted amounts (≈) assume the structure as drawn. Values belong to the molecule of their own block, whether it stands above or below them.

How the values were obtained:
[1] = target: T1, Neuropeptide Y receptor type 5 (Homo sapiens, UniProt Q15761); test: Displacement of [125I]PYY from human recombinant NPYY5 receptor expressed in mouse LMtk cells; format: cell-based
T1 sequence (Q15761 whole entry): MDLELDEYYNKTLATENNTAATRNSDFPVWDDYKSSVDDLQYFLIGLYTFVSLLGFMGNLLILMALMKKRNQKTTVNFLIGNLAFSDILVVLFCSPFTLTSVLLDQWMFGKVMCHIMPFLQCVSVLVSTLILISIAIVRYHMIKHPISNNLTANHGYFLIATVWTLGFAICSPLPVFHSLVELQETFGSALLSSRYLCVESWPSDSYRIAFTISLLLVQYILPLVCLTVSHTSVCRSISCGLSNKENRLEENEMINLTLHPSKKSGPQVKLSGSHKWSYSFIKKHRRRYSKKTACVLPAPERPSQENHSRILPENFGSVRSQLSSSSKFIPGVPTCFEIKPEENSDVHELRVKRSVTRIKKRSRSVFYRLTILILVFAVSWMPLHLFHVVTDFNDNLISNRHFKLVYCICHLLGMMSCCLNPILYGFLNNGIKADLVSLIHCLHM

[2] = target: T2, Neuropeptide Y receptor type 1 (Homo sapiens, UniProt P25929); test: Inhibition of NPYY1 receptor
T2 sequence (P25929 whole entry): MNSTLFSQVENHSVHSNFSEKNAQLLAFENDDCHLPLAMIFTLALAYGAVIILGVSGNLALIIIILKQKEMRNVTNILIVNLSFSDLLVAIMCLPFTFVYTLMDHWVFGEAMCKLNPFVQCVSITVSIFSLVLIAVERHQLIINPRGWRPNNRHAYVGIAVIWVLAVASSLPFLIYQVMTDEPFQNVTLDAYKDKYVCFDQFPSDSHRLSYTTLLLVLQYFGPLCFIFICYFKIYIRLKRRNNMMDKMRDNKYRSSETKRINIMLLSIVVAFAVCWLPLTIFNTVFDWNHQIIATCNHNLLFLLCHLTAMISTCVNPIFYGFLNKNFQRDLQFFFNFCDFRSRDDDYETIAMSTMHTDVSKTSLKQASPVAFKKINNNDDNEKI

[3] = target: T3, Neuropeptide Y receptor type 2 (Homo sapiens, UniProt P49146); test: Inhibition of NPYY2 receptor
T3 sequence (P49146 whole entry): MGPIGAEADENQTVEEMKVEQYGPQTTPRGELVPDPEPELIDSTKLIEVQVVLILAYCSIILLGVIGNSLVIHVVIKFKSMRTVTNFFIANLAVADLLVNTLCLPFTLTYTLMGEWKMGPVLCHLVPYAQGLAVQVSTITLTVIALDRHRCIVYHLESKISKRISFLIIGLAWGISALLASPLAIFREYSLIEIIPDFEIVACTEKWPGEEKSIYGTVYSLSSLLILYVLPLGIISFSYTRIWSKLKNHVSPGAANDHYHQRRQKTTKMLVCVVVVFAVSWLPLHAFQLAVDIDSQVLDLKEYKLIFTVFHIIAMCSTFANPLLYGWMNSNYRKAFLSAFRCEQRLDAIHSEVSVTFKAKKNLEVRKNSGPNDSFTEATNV

[4] = target: Neuropeptide Y receptor type 4 (Homo sapiens, UniProt P50391); test: Inhibition of NPYY4 receptor
[5] = target: T1, Neuropeptide Y receptor type 5; test: Antagonist activity at human recombinant NPYY5 receptor expressed in mouse LMtk cells assessed as inhibition of NPY-induced calcium increase; format: functional, cell-based
[6] = Plasma concentration in rat plasma at 10 mg/kg, po after 2 hrs; format: ADME, organism-based; parameters: dose 10 mg/kg, route oral; details: read-out: Drug uptake
[7] = Plasma concentration in rat plasma at 10 mg/kg, po after 4 hrs; format: ADME, organism-based; parameters: dose 10 mg/kg, route oral; details: read-out: Drug uptake
[8] = Ratio of drug level in brain to plasma in rat at 10 mg/kg, po after 2 hrs; format: ADME, organism-based; parameters: dose 10 mg/kg, route oral
[9] = Solubility in 0.2 M phosphate buffer at pH 6.8; format: physicochemical
[10] = Selectivity for human NPYY5 receptor over NPYY1 receptor
[11] = Selectivity for human NPYY5 receptor over NPYY2 receptor
[12] = Selectivity for human NPYY5 receptor over NPYY4 receptor
[13] = Plasma concentration in rat plasma at 2.7 mg/kg, iv after 10 mins; format: ADME, organism-based; parameters: dose 2.7 mg/kg, route intravenous; details: read-out: Drug uptake
[14] = test system: Brain; test: Drug level in rat brain at 2.7 mg/kg, iv after 10 mins; format: ADME, organism-based; parameters: dose 2.7 mg/kg, route intravenous; details: in vivo
[15] = Ratio of drug level in brain to plasma at 2.7 mg/kg, iv after 10 mins; format: ADME, organism-based; parameters: dose 2.7 mg/kg, route intravenous; details: rat, read-out: BPR

Chain of Neuropeptide Y receptor type 4 (P50391 whole entry): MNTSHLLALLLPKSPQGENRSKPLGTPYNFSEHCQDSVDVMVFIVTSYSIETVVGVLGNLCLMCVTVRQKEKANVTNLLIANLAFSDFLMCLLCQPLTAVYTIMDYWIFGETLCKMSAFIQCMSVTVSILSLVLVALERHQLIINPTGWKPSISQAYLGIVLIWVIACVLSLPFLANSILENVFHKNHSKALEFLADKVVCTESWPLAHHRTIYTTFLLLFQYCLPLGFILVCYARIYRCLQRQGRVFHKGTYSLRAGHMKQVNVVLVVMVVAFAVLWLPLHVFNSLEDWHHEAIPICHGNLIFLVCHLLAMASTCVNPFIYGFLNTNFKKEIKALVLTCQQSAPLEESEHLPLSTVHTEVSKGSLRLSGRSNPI

IC50 [1]: 3.3 nM
IC50 [2]: > 10000 nM
IC50 [3]: > 10000 nM
IC50 [4]: > 10000 nM
IC50 [5]: 5.5 nM
concentration at 2 h [6]: 1.4 µM
concentration at 4 h [7]: 0.85 µM
Kp at 2 h [8]: 0.05
solubility [9]: 0.94 µg/mL (≈ 2.35 µM)
Selectivity ratio [10]: 1000
Selectivity ratio [11]: 1000
Selectivity ratio [12]: 1000
Structure (SMILES): Cc1nnc(-c2ccc3[nH]c([C@H]4CC[C@@]5(CC4)OC(=O)c4ccccc45)nc3c2)o1

IC50 [1]: 1000 nM
Structure (SMILES): Cc1nnc(-c2ccc3[nH]c([C@H]4CC[C@]5(CC4)OC(=O)c4ccccc45)nc3c2)o1

IC50 [1]: 15 nM
Structure (SMILES): O=C1O[C@]2(CC[C@H](c3nc4cc(-c5nnco5)ccc4[nH]3)CC2)c2ccccc21

IC50 [1]: 2.1 nM
Structure (SMILES): O=C1O[C@]2(CC[C@H](c3nc4cc(-c5noc(C(F)(F)F)n5)ccc4[nH]3)CC2)c2ccccc21

IC50 [1]: 45 nM
Structure (SMILES): O=C1O[C@]2(CC[C@H](c3nc4cc(Br)ccc4[nH]3)CC2)c2ccccc21

IC50 [1]: 5.1 nM
IC50 [2]: > 10000 nM
IC50 [3]: > 10000 nM
IC50 [4]: > 10000 nM
IC50 [5]: 7 nM
concentration at 2 h [6]: 0.4 µM
Selectivity ratio [10]: 1000
Selectivity ratio [11]: 1000
Selectivity ratio [12]: 1000
Structure (SMILES): Cc1nc(-c2ccc3[nH]c([C@H]4CC[C@@]5(CC4)OC(=O)c4ccccc45)nc3c2)no1

IC50 [1]: 5.9 nM
IC50 [2]: > 10000 nM
IC50 [3]: > 10000 nM
IC50 [4]: > 10000 nM
IC50 [5]: 7.2 nM
concentration at 2 h [6]: 3.2 µM
concentration at 4 h [7]: 0.99 µM
Kp at 2 h [8]: 0.12
solubility [9]: 5.9 µg/mL (≈ 14.7 µM)
Selectivity ratio [10]: 1000
Selectivity ratio [11]: 1000
Selectivity ratio [12]: 1000
Structure (SMILES): Cn1nnc(-c2ccc3[nH]c([C@H]4CC[C@@]5(CC4)OC(=O)c4ccccc45)nc3c2)n1

Continued, molecule first:

Structure (SMILES): O=C1O[C@]2(CC[C@H](c3nc4cc(-c5cccnc5)ccc4[nH]3)CC2)c2ccccc21
IC50 [1]: 3.1 nM

Structure (SMILES): O=C1O[C@]2(CC[C@H](c3nc4cc(Cl)c(-c5ccccc5)cc4[nH]3)CC2)c2ccccc21
IC50 [1]: 2.2 nM

Structure (SMILES): COC(=O)c1ccc2[nH]c([C@H]3CC[C@@]4(CC3)OC(=O)c3ccccc34)nc2c1Cl
IC50 [1]: 4.5 nM

Structure (SMILES): O=C1O[C@]2(CC[C@H](c3nc4cc(Cl)c(C(F)(F)F)cc4[nH]3)CC2)c2ccccc21
IC50 [1]: 2.6 nM
solubility [9]: < 0.01 µg/mL

Structure (SMILES): COC(=O)c1cc2[nH]c([C@H]3CC[C@]4(CC3)OC(=O)c3ccccc34)nc2cc1Cl
IC50 [1]: 1000 nM

Structure (SMILES): O=C1O[C@]2(CC[C@H](c3nc4cc(Cl)c(Cl)cc4[nH]3)CC2)c2ccccc21
IC50 [1]: 8 nM

Structure (SMILES): O=C1O[C@]2(CC[C@H](c3nc4cc(C(F)(F)F)ccc4[nH]3)CC2)c2ccccc21
IC50 [1]: 47 nM

Structure (SMILES): O=C1O[C@]2(CC[C@H](c3nc4cc(Cl)ccc4[nH]3)CC2)c2ccccc21
IC50 [1]: 39 nM

Structure (SMILES): COC(=O)c1ccc2[nH]c([C@H]3CC[C@@]4(CC3)OC(=O)c3ccccc34)nc2c1
IC50 [1]: 7.7 nM
concentration at 10 min [13]: 3.1 µM
Drug uptake [14]: 1.7 nmol/g
Kp at 10 min [15]: 0.55
solubility [9]: 0.6 µg/mL (≈ 1.59 µM)

Structure (SMILES): O=C1O[C@]2(CC[C@H](c3nc4cc(-c5ccccn5)ccc4[nH]3)CC2)c2ccccc21
IC50 [1]: 2.4 nM

Structure (SMILES): N#Cc1ccc2[nH]c([C@H]3CC[C@@]4(CC3)OC(=O)c3ccccc34)nc2c1
IC50 [1]: 20 nM

Structure (SMILES): O=C1O[C@]2(CC[C@H](c3nc4ccccc4[nH]3)CC2)c2ccccc21
IC50 [1]: 91 nM

Structure (SMILES): Cn1c2cc(Cl)c(Cl)cc2nc1[C@H]1CC[C@@]2(CC1)OC(=O)c1ccccc12
IC50 [1]: > 1000 nM

Structure (SMILES): COC(=O)c1cc2[nH]c([C@H]3CC[C@@]4(CC3)OC(=O)c3ccccc34)nc2cc1Cl
IC50 [1]: 2.2 nM

Structure (SMILES): O=C1O[C@]2(CC[C@H](c3nc4ccc(-c5ccccc5)cc4[nH]3)CC2)c2ccccc21
IC50 [1]: 2.3 nM

Structure (SMILES): O=C1O[C@]2(CC[C@H](c3nc4ccc(-c5ccc(F)cc5)cc4[nH]3)CC2)c2ccccc21
IC50 [1]: 1.7 nM

Structure (SMILES): O=C(c1ccccc1)c1ccc2[nH]c([C@H]3CC[C@@]4(CC3)OC(=O)c3ccccc34)nc2c1
IC50 [1]: 2.4 nM
